Measurements: patent US9649313B2, “Use of ITK inhibitors for the treatment of cancer” (The University of North Carolina at Chapel Hill, priority 2012, dated 2017)

Tests used:
[1] = test system: cytokine production; conditions: anti-CD3 antibody stimulated Balb/c mice; Riether et al., 2009; cited from earlier work
[2] = Riether et al., 2009; cited from earlier work
[3] = test system: ERK and AKT activation status in RPMI 8322 cells; assay: western blot of ERK and AKT activation; assay type: cell-based, Human; conditions: concentrations as high as 50 nM, 3 days
Method: (§1) FIG. 9. Western blots of phospho-ERK and phospho-AKT.
(§2) To investigate the impact of ITK inhibition by BI 10N on the ERK and AKT signaling pathways, which are frequently misregulated in melanoma, the ITKHI melanoma cell lines (VMM 39 and RPMI 8322) were grown in the presence of increasing BI 10N concentrations. Western blot analysis was performed on whole cell lysates from these cells using antibodies against ERK, pERK^Thr202/Tyr204, AKT, and pAKT^Ser473.

[4] = test system: ERK and AKT activation status in VMM 39 cells; assay: western blot of ERK and AKT activation; assay type: cell-based, Human; conditions: concentrations as high as 50 nM, 3 days
Method: as §1, §2

[5] = target: T1, phosphorylated (active) form of ITK in RPMI 8322 cells (Homo sapiens, UniProt Q08881); assay: two-dimensional electrophoresis and western blot of ITK isoforms; assay type: cell-based; conditions: RPMI 8322 cells treated for 3 days
T1 construct: endogenous in cells; host or cells: RPMI 8322 human melanoma cells
Source text: Therefore, alternatively, we performed two-dimensional electrophoresis on whole cell lysates obtained from RPMI 8322 cells that had been treated with phosphatase or different concentrations of BI 10N for 3 days prior to harvest followed by western blot analysis using the ITK antibody. In untreated RPMI 8322 cells, two charge isoforms that migrated with the appropriate weight for ITK were identified by immunoblot analysis. […] These observations indicate that the formation of the phosphorylated (active) form of ITK is inhibited in the presence of ≧25 nM of BI 10N (data not shown).

[6] = test system: 56 protein kinases; assay: cell-free kinase selectivity panel; assay type: biochemical; conditions: versus 51 of the 56 protein kinases tested
Source text: To assess the effect of pharmacologic inhibition of ITK activity in melanoma preclinical models, we used BI 10N, which has been previously shown to inhibit ITK's phosphoryl-transfer activities (Kashem et al., 2007; Riether et al., 2009). We investigated the potency and selectivity of BI 10N against 56 kinases using a cell-free assay (Table 8A).

[7] = target: T2, LCK (Homo sapiens, UniProt P06239); assay: cell-free kinase assay; assay type: biochemical
T2 construct: purchased Carna Biosciences
Source text: (§3) We investigated the potency and selectivity of BI 10N against 56 kinases using a cell-free assay (Table 8A). […] The selectivity of this inhibitor was investigated by testing the potency of the inhibitor at two concentrations with 53 kinases by Carna Biosciences (MA) (Table 2).

[8] = target: T3, ABL (Homo sapiens, UniProt P00519); assay: cell-free kinase assay; assay type: biochemical
T3 construct: purchased Carna Biosciences
Source text: as §3

[9] = target: T4, IGF1R (Homo sapiens, UniProt P08069); assay: cell-free kinase assay; assay type: biochemical
T4 construct: purchased Carna Biosciences
Source text: as §3

[10] = target: T5, FYN (Homo sapiens, UniProt P06241); assay: cell-free kinase assay; assay type: biochemical; conditions: Table 2, by Carna Biosciences
T5 construct: purchased Carna Biosciences
Source text: as §3

[11] = target: T6, FGFR1 (Homo sapiens, UniProt P11362); assay: cell-free kinase assay; assay type: biochemical
T6 construct: purchased Carna Biosciences
Source text: as §3

[12] = test system: A375 (ITKINT) melanoma cell line; assay: proliferation assay (cell counts); assay type: cell-based, Human; conditions: 50 nM
Method: (§4) FIG. 5A-5C. Effects of BI 10N inhibitor on proliferation and motility of melanoma cells. FIG. 5A) Cell motility assays were performed as described in FIG. 4A-4E; however, the inhibitor BI 10N was added to the media to decrease ITK kinase activity in parental cell lines instead of using the shRNA ITK knockdown cell lines. BI 10N was added to the media 24 hours prior to the start of the motility assay and the VivaView camera system was used to image cellular motility of the melanoma cells as described previously. FIG. 5B) The proliferation assays were completed as described in FIG. 4A-4E, substituting the BI 10N compound for the shRNA. Cells were trypsinized and counted using the Invitrogen Countess. Fifty thousand cells were placed into each well of a 6 well plate and BI 10N was added to the indicated concentrations. The cells were counted with the Invitrogen Countess at 3, 5, and 6 or 7 days after plating to assess the proliferation rates of the different cell lines in the presence of BI 10N. FIG. 5C) Both ITKHI (RPMI 8322) and ITKLO (PMWK) melanoma cell lines were grown in the presence of BI 10N (10-200 nM) in soft agar. In 24-well cell culture plates 2,500 cells per well were added to a 1.4% agarose solution. The agarose and cell solution was then poured on top of a solidified base agar. The cells were incubated at 37° C. for three to four weeks to ensure adequate growth before analysis. FIG. 5D) Cell cycle analysis of PMWK, VMM 39, and RPMI 8322 cells that have been treated with increasing concentrations of BI 10N. Following 3 days of BI 10N treatment, the cells were incubated with EdU for 3 hours and were subsequently assessed for 5-ethynyl-2′-deoxyuridine (EdU) incorporation rate and DNA content with FxCycle Violet. […]
(§5) Human melanoma cell lines were plated onto 10 cm^2 6 well dishes at a density of 50,000 cells per well. […] Five hundred […] of media was added to the cell suspension, the cells were removed from the well and then counted using the Countess® Automated Cell Counter from Life Technologies (cat #C10227). […]

[13] = test system: SKMEL 131 (ITKLO) melanoma cell line; assay: proliferation assay (cell counts); assay type: cell-based, Human; conditions: inhibitor as high as 150 nM
Method: as §4, §5

[14] = test system: SKMEL 153 (ITKHI) melanoma cell line; assay: proliferation assay (cell counts); assay type: cell-based, Human; conditions: 50 nM
Method: as §4, §5

T3 sequence (P00519 whole entry): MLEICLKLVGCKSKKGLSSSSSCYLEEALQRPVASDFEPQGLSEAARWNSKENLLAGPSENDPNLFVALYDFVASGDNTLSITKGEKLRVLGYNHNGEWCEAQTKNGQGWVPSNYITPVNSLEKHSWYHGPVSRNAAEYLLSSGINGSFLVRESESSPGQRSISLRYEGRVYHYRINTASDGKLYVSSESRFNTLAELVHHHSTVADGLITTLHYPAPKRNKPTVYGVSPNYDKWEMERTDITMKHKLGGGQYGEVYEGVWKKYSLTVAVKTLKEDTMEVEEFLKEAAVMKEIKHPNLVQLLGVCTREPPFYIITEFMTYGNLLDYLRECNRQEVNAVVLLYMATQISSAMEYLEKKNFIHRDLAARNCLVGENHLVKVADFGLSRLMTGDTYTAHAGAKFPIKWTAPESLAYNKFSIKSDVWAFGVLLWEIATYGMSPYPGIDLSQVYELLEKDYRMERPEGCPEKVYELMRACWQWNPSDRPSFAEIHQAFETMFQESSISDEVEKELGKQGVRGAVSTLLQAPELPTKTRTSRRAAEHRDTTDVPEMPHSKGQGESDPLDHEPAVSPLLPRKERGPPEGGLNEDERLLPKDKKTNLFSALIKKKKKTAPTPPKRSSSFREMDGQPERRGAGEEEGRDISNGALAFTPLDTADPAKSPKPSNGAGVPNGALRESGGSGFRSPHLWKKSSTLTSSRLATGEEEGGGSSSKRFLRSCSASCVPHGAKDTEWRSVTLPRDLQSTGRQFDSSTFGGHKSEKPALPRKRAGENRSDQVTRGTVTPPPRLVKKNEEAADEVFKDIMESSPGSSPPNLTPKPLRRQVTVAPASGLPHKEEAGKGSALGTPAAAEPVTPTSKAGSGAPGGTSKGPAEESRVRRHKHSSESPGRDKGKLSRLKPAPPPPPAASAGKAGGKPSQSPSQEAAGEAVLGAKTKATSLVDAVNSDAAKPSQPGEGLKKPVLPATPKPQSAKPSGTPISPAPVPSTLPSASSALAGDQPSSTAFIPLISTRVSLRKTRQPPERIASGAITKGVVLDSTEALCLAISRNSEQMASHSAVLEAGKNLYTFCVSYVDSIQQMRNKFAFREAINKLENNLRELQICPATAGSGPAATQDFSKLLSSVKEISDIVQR
T2 sequence (P06239 whole entry): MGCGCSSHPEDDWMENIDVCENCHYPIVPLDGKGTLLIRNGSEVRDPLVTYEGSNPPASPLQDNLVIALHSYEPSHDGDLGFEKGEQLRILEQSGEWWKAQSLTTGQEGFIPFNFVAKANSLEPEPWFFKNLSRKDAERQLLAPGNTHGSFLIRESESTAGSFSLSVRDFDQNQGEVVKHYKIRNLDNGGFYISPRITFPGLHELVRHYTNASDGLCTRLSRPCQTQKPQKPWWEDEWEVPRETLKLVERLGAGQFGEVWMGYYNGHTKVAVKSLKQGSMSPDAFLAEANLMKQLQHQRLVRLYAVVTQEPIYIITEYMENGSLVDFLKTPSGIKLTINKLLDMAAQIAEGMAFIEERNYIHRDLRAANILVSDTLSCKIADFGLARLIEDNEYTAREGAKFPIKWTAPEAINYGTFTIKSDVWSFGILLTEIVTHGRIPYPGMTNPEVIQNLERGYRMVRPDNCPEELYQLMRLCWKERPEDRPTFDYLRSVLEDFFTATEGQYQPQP
T6 sequence (P11362 22-822): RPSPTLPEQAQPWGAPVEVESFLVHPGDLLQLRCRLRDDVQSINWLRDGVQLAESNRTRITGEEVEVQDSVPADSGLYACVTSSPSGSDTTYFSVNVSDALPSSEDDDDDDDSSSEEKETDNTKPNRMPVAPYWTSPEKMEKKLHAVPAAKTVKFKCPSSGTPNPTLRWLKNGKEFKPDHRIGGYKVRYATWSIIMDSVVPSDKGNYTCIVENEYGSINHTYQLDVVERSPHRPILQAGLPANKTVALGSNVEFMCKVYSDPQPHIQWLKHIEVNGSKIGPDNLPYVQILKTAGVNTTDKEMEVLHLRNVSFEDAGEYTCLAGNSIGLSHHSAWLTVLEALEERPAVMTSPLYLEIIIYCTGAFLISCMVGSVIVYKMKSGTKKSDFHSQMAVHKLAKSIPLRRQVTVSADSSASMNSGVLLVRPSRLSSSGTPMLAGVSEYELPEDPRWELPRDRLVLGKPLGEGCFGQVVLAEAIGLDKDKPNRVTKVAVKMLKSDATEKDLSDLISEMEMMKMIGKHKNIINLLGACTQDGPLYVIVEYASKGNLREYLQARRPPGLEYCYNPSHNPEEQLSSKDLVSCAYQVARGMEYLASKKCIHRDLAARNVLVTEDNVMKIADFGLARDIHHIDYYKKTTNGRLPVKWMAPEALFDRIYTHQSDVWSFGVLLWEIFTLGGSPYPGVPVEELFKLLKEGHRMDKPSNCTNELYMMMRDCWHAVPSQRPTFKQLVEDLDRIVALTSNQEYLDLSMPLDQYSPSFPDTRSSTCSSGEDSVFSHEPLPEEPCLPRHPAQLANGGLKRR
T4 sequence (P08069 31-1367): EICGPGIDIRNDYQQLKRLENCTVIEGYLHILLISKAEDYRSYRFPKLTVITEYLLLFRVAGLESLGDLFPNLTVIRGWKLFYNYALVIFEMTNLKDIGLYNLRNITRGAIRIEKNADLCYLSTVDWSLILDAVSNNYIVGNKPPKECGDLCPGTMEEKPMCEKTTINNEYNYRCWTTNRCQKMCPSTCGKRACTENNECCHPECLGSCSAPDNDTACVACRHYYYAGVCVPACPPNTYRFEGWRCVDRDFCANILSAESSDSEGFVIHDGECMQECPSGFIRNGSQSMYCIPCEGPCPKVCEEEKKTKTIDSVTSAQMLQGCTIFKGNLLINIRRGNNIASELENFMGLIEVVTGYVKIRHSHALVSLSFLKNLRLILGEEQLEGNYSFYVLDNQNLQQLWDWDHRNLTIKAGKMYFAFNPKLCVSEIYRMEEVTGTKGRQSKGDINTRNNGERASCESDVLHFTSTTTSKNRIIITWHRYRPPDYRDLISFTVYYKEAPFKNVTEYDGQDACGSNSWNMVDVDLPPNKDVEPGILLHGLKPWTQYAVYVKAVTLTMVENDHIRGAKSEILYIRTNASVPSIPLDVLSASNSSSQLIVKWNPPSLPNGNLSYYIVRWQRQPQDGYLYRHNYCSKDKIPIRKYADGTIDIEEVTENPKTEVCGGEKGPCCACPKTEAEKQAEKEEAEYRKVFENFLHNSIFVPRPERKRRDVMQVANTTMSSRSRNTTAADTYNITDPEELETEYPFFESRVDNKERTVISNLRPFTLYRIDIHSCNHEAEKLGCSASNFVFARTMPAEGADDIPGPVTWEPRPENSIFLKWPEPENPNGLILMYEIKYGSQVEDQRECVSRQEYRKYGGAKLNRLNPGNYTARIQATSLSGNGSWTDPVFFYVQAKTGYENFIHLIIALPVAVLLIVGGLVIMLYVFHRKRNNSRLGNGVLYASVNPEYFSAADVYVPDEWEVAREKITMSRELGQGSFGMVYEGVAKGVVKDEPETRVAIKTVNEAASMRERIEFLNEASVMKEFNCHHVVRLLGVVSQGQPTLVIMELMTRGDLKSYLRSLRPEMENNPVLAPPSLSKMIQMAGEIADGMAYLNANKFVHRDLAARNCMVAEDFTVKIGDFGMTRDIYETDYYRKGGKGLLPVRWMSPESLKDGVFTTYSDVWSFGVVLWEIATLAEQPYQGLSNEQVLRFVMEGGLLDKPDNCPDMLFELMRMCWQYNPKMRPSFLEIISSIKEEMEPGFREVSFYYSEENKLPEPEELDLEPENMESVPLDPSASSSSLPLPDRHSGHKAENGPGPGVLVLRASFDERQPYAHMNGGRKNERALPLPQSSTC
T1 sequence (Q08881 whole entry, canonical isoform): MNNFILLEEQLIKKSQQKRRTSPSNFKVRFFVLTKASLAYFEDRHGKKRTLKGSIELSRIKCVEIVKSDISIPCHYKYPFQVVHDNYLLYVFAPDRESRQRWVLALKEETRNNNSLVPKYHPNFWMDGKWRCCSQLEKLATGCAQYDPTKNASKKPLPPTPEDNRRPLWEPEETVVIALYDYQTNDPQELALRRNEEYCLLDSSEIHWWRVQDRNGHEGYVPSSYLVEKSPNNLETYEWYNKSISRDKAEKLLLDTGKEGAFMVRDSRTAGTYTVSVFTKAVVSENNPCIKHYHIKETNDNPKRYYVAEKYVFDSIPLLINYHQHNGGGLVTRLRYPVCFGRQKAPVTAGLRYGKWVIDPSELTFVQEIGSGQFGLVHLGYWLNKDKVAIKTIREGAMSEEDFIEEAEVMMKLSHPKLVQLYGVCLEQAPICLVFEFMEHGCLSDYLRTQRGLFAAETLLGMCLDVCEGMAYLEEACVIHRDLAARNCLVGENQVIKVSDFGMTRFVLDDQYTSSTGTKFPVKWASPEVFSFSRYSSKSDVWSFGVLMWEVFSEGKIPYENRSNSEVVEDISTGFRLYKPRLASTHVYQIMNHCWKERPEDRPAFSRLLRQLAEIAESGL
T5 sequence (P06241 whole entry): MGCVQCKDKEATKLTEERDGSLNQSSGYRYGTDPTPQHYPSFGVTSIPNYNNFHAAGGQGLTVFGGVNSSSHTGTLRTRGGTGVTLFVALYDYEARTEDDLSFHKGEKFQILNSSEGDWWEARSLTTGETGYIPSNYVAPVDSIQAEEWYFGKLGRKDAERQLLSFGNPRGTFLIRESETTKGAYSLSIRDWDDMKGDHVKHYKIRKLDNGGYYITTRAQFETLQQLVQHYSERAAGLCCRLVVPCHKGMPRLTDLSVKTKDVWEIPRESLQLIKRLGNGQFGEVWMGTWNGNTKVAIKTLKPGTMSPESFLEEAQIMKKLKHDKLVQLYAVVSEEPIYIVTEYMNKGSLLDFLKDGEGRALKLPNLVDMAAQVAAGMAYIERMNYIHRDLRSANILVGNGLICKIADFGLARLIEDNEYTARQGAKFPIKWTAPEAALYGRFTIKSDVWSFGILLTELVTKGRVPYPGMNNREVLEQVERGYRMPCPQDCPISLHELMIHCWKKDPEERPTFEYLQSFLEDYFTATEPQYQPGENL

concentration at which formation of the phosphorylated (active) form of ITK is inhibited [5]: ≥ 25 nM | IC50 ([7]; Table 2, by Carna Biosciences): 10.6 nM | inhibition at 0.2 µM ([7]; single inhibitor concentration): 96.7% | IC50 ([8]; Table 2, by Carna Biosciences): 23.5 nM | inhibition at 0.2 µM ([8]; single inhibitor concentration): 91.9% | IC50 ([9]; Table 2, by Carna Biosciences): 886 nM | inhibition at 0.2 µM ([9]; single inhibitor concentration): 19% | IC50 [10]: 24.2 nM | IC50 ([11]; Table 2, by Carna Biosciences): 59.7 nM | inhibition at 0.2 µM ([11]; single inhibitor concentration): 80.2%
Structure (SMILES): CC(C)C(C)CNCc1ccc2c(c1)[nH]/c(=N\C(=O)c1ccc(C3=CN=NC3)s1)n2CC(C)(C)O (stereo not drawn) [BI 10N]
cytokine production in vivo [1]: decrease cytokine production | F value (bioavailable in mice) [2]: 21% | activation status of ERK and AKT [3]: No significant effects | activation status of ERK and AKT [4]: No significant effects | selectivity for ITK over other protein kinases [6]: at least 1000 fold | effect on proliferation [12]: decreased similarly to the ITKHI cell lines | effect on doubling time [13]: did not increase their doubling time | increase in doubling time [14]: about 50%
